Assay results: PMC2956102 (International Journal of Molecular Sciences, 2010)
Read-outs that look alike come from different tables or passages of the source.

Columns and labels:
[1] = molecular target: intestinal maltase; test: Intestinal α-glucosidase (maltase) inhibition assay, rat intestinal acetone powder; type: biochemical; settings: for IC50: 37 mM maltose, pH 6.9, 37 °C, 30 min, means ± S.E.M., n = 3
Protocol: (§1) The assessment of α-glucosidase inhibitory activity was performed according to our previous report. Briefly, 100 mg of rat intestinal acetone powder was homogenized in 3 mL of 0.9% NaCl solution. After centrifugation (12,000 g × 30 min), 10 μL of the supernatant (maltase = 0.68 units/mg protein, sucrase = 0.10 units/mg protein) was incubated with 70 μL of substrate solution (37 mM maltose, 54 mM sucrose), and 20 μL of sample at various concentrations in 0.1 M phosphate buffer pH 6.9 at 37 °C for 30 min (maltase assay) and 60 min (sucrase assay). The mixtures were suspended in boiling water for 10 min to stop the reaction. The concentrations of glucose released from the reaction mixtures were determined by glucose oxidase method. Acarbose was used as a positive control for this assay.
(§2) The reaction was performed according to the above assay (α-glucosidase and pancreatic α-amylase). Results were expressed as a percentage inhibition of the corresponding control values.

[2] = cited from earlier work
[3] = molecular target: T1, intestinal sucrase (Rattus norvegicus, UniProt P23739); test: Intestinal α-glucosidase (sucrase) inhibition assay, rat intestinal acetone powder; type: biochemical; settings: for Percentage intestinal sucrase inhibition in combination with acarbose, compared with acarbose alone: 1 μM compound + 3.12 μM acarbose, Figure 3; for IC50: 54 mM sucrose, pH 6.9, 37 °C, 60 min, means ± S.E.M., n = 3
T1 construct: 100 mg of rat intestinal acetone powder was homogenized in 3 mL of 0.9% NaCl solution; tissue Sigma Chemical Co. Ltd. (St. Louis, MO); host or cells: rat intestine (acetone powder, supernatant of the saline homogenate)
T1 sequence (P23739 1014-1841 limits assumed): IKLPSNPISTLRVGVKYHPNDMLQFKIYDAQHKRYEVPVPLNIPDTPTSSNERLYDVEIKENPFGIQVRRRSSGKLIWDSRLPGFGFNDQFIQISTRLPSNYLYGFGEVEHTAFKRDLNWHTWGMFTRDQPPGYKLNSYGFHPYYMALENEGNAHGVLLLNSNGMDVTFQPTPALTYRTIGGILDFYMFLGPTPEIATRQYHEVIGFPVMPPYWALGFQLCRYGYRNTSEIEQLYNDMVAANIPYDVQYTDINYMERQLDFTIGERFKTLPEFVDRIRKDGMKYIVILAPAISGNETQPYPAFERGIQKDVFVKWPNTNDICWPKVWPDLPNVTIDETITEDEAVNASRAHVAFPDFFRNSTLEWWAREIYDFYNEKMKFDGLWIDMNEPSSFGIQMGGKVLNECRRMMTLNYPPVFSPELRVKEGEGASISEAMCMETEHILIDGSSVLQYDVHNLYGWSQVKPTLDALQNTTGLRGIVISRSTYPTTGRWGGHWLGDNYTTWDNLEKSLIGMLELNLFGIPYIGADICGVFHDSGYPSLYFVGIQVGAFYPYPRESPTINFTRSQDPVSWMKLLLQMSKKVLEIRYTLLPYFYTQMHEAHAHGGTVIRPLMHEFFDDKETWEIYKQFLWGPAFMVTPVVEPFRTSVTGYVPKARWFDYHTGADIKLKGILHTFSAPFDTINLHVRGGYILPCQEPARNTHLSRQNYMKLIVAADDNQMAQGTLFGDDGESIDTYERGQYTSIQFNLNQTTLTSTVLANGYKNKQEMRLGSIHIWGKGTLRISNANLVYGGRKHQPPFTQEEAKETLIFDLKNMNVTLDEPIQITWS
T1 sequence (P23739 2-1013 partner limits assumed): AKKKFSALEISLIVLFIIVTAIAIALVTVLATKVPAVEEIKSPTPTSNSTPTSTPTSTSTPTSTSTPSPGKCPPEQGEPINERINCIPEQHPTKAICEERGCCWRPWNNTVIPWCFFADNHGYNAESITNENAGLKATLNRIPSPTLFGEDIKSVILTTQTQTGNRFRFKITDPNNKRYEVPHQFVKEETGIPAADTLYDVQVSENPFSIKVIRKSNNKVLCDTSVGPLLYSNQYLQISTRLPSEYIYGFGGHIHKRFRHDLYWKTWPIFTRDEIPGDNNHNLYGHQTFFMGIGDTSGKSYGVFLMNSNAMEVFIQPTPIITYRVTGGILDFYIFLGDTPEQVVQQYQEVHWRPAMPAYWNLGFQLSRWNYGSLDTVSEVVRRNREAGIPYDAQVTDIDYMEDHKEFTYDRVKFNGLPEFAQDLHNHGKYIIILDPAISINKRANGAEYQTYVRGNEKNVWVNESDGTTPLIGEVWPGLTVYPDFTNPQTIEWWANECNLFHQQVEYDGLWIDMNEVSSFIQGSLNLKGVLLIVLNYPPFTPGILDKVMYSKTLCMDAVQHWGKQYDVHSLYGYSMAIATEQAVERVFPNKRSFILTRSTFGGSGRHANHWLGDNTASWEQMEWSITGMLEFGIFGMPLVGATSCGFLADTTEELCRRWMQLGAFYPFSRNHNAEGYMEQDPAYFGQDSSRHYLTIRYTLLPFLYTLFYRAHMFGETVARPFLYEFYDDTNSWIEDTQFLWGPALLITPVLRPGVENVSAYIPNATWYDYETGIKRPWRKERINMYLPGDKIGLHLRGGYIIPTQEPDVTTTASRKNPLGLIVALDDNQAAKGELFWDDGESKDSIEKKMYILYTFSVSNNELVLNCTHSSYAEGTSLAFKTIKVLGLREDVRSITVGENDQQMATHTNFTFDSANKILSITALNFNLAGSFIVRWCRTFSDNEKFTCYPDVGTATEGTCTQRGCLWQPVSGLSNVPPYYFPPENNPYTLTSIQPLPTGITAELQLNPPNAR
Protocol: as §1, with “method.” for “method. Acarbose was used as a positive control for this assay.”
as §2

[4] = molecular target: T2, porcine pancreatic α-amylase (Sus scrofa, UniProt P00690); test: Pancreatic α-amylase inhibition assay (starch, DNS reagent); type: biochemical; settings: for Percentage pancreatic α-amylase inhibition in combination with acarbose, compared with acarbose alone: 1.0 μM compound + 3.12 μM acarbose, Figure 4; for IC50: 1 g/L starch, amylase 3 U/mL, pH 6.9, 10 min, means ± S.E.M., n = 3
T2 construct: purchased Sigma Chemical Co. Ltd. (St. Louis, MO)
T2 sequence (P00690 16-511): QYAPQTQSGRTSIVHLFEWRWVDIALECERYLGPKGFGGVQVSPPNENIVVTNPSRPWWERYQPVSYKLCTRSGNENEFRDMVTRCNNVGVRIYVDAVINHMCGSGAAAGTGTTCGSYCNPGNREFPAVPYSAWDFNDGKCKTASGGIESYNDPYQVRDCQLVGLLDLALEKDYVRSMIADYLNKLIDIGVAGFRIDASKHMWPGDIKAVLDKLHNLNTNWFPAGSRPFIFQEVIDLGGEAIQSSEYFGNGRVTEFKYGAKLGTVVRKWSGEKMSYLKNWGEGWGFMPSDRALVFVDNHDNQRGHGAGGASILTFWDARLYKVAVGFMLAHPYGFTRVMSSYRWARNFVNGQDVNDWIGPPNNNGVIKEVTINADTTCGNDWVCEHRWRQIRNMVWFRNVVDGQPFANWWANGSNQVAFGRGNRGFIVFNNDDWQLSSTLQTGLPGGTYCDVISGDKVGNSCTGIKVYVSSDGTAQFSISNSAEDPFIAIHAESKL
Protocol: The pancreatic α-amylase inhibition assay was performed according to our previous reports. Porcine pancreatic α-amylase was dissolved in 0.1 M phosphate buffer saline, pH 6.9. The various concentrations of test compounds were added to solution containing in 1 g/L starch and phosphate buffer. The reaction was initiated by adding amylase (3 U/mL) to the incubation medium to a final volume of 500 μL. After 10 min, the reaction was stopped by adding 0.5 mL dinitrosalicylic (DNS) reagent (1% 3,5-dinitrosalicylic acid, 0.2% phenol, 0.05% Na2SO3, and 1% NaOH in aqueous solution) to the reaction mixture. The mixtures were heated at 100 °C for 10 min and 500 μL of 40% potassium sodium tartarate solution was added to the mixtures to stabilize the color. After cooling to room temperature in a cold water bath, absorbance was recorded at 540 nm using a spectrophotometer.
as §2

[5] = tested on: pancreatic β-cell line; set-up: method as in PMID 15631504; settings: ref [16]; cited from earlier work
[6] = tested on: intestinal α-glucosidase; settings: combination of acarbose and compound; ref [8]; cited from earlier work
[7] = molecular target: T1, intestinal sucrase; settings: cited from earlier work
[8] = tested on: 3T3-L1 adipocytes; set-up: method as in PMID 18179781; settings: H2O2- or TNF-α-induced, via inhibition of JNK signal pathway; ref [15]; cited from earlier work
[9] = tested on: yeast α-glucosidase; set-up: method as in PMID 15558946; settings: ref [9]; cited from earlier work

C[C@H]1O[C@H](O[C@H]2[C@H](O)[C@@H](O)[C@@H](O[C@H]3[C@H](O)[C@@H](O)C(O)O[C@@H]3CO)O[C@@H]2CO)[C@H](O)[C@@H](O)[C@@H]1N[C@H]1C=C(CO)[C@@H](O)[C@H](O)[C@H]1O (stereo partly drawn) [Acarbose]
IC50 [1]: 3 ± 1 µM
Reduction in the incidence of diabetes ([2]; acarbose treatment, ref [18]): 25%
Reduction of the postprandial peak of glycemia ([2]; acarbose treatment, ref [19]): 20%
Most common adverse effect ([2]; dose-dependent, flatulence, meteorism and abdominal distention, ref [19]): gastrointestinal disturbance
Duration of the effect on postprandial glycemia ([2]; ref [19]): ≤ 5 h
Dose exceeding the saturated binding of α-glucosidase, no increase in inhibitory effect ([2]; ref [20],[21]): > 300 mg/day
Lowest dose with clinical effects ([2]; ref [20],[21]): 150 mg/day

Oc1cc(O)c2cc(O)c(-c3ccc(O)c(O)c3)[o+]c2c1 [Cyanidin, Cyanidin chloride]
Intestinal sucrase inhibitory activity [3]: weak
Percentage intestinal sucrase inhibition in combination with acarbose, compared with acarbose alone [3]: No change
IC50 [3]: 1420 ± 250 µM
Pancreatic α-amylase inhibitory activity [4]: weak
Percentage pancreatic α-amylase inhibition in combination with acarbose, compared with acarbose alone [4]: significantly increased
IC50 [4]: 380 ± 10 µM
Percentage intestinal maltase inhibition in combination with acarbose, compared with acarbose alone ([1]; 1 μM compound + 0.05 μM acarbose, Figure 2): No change
IC50 [1]: > 3000 µM

OC[C@H]1O[C@@H](Oc2cc3c(O[C@@H]4O[C@H](CO)[C@@H](O)[C@H](O)[C@H]4O)cc(O)cc3[o+]c2-c2ccc(O)c(O)c2)[C@H](O)[C@@H](O)[C@@H]1O [Cyanidin-3,5-diglucoside, cyanidin-3,5-diglucoside]
Intestinal sucrase inhibitory activity [3]: inactive
Percentage intestinal sucrase inhibition in combination with acarbose, compared with acarbose alone [3]: synergistic effects
IC50 [3]: > 2000 µM
Pancreatic α-amylase inhibitory activity [4]: no inhibitory activity
Percentage pancreatic α-amylase inhibition in combination with acarbose, compared with acarbose alone [4]: did not show significant changes
IC50 [4]: > 1000 µM
IC50 [1]: > 3000 µM

OC[C@H]1O[C@@H](Oc2cc3c(O)cc(O)cc3[o+]c2-c2ccc(O)c(O)c2)[C@H](O)[C@@H](O)[C@H]1O [Cyanidin-3-galactoside, cyanidin-3-galactoside chloride]
Percentage intestinal sucrase inhibition in combination with acarbose, compared with acarbose alone [3]: synergistic effects
Pancreatic α-amylase inhibitory activity [4]: no inhibitory activity
Percentage pancreatic α-amylase inhibition in combination with acarbose, compared with acarbose alone [4]: did not show significant changes
IC50 [4]: > 1000 µM
Insulin secretion [5]: directly stimulate insulin secretion
Effect of combination with acarbose on intestinal α-glucosidase inhibition [6]: synergistic effect
IC50 [1]: > 3000 µM
Type of inhibition against intestinal sucrase ([7]; kinetic model, ref [8]): mixed type
IC50 ([7]; previously reported value, ref Adisakwattana et al. [8]): 500 ± 50 µM

OC[C@H]1O[C@@H](Oc2cc3c(O)cc(O)cc3[o+]c2-c2ccc(O)c(O)c2)[C@H](O)[C@@H](O)[C@@H]1O [Cyanidin-3-glucoside, cyanidin-3-glucoside chloride]
Percentage intestinal sucrase inhibition in combination with acarbose, compared with acarbose alone [3]: synergistic effects
IC50 [3]: 970 ± 50 µM
Percentage pancreatic α-amylase inhibition in combination with acarbose, compared with acarbose alone [4]: significantly increased
IC50 [4]: 300 ± 10 µM
Insulin secretion [5]: directly stimulate insulin secretion
Action against induced insulin resistance [8]: protective action
IC50 [1]: > 3000 µM

C[C@@H]1O[C@@H](OC[C@H]2O[C@@H](Oc3cc4c(O)cc(O)cc4[o+]c3-c3ccc(O)c(O)c3)[C@H](O)[C@@H](O)[C@@H]2O)[C@H](O)[C@H](O)[C@H]1O [cyanidin-3-rutinoside]
Manner of inhibition of yeast α-glucosidase [9]: non-competitive
